The results in this text go back to patent publication US9464077B2, “Nitrogen-containing aromatic heterocyclic compound” (Astellas Pharma Inc., priority 2012, dated 2016).

The subject of test [1] is bladder cancer patient-derived cell line RT-112. Nature of the test: Anchorage-independent cell growth inhibition, spheroid plate. The class given is cell-based. The conditions noted are these: Homo sapiens, RT-112, 96 h, 4 days, read-out: growth inhibition rate RT-112.
The target of a further test is human recombinant FGFR1 (Homo sapiens, UniProt P11362). Briefly: FGFR1 enzyme assay (LabChip EZ Reader).
human recombinant FGFR1, sequence (P11362 22-822): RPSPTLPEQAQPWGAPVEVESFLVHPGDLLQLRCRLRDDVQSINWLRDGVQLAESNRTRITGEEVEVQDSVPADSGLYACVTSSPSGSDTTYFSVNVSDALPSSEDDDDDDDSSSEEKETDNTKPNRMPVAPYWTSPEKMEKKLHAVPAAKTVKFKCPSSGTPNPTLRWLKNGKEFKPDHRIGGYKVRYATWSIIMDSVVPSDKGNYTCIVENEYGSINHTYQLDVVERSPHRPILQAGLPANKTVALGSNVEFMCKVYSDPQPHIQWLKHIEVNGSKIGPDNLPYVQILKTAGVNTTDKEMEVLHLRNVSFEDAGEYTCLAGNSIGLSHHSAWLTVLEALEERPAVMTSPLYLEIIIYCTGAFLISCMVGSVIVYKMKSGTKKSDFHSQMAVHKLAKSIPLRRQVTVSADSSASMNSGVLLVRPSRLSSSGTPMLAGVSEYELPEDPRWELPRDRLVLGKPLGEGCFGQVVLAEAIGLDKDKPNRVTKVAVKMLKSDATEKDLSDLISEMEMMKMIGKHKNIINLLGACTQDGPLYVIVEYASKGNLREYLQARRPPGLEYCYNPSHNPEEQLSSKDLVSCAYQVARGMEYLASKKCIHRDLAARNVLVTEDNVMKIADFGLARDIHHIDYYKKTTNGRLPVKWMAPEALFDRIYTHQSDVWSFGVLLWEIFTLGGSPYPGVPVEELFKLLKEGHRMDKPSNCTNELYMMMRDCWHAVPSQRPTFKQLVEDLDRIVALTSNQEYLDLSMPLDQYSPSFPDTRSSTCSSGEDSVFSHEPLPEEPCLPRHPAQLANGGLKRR
The target in the next test is human recombinant FGFR2 (Homo sapiens, UniProt P21802). Briefly: FGFR2 enzyme assay (LabChip EZ Reader).
human recombinant FGFR2, sequence (P21802 22-821): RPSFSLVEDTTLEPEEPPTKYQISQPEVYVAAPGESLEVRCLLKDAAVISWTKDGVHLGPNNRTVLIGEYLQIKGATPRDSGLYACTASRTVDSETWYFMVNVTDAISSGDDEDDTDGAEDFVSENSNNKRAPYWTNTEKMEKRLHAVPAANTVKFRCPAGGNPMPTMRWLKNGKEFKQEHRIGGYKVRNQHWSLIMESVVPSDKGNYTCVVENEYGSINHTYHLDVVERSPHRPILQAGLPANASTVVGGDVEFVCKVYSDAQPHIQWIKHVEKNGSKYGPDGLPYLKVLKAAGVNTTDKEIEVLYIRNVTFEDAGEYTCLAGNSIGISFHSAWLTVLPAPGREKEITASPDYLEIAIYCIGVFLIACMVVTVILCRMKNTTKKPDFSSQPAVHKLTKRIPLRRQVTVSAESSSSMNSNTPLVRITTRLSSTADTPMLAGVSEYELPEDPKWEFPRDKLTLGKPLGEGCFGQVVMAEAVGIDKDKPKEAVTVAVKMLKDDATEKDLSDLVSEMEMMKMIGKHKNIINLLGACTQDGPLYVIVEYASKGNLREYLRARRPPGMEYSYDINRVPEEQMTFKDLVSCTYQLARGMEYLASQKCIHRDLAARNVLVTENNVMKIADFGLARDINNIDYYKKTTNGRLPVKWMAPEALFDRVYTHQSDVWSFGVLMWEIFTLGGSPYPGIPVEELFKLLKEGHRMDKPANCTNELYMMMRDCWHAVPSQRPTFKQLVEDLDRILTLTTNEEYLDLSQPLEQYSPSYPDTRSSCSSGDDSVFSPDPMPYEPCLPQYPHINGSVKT
The subject of test [2] is bladder cancer patient-derived cell line RT4. Nature of the test: Anchorage-independent cell growth inhibition, spheroid plate. The class given is cell-based. The conditions noted are these: Homo sapiens, 96 h, 4 days, read-out: growth inhibition rate RT4; for inhibition at 0.001 µM: 1 nM; for inhibition at 0.01 µM: 10 nM; for inhibition at 0.1 µM: 100 nM.
Test [3] relates to FGFR3-TACC3_v4-expressing NIH3T3 cells. The description is as above. The conditions noted are these: Mus musculus, NIH3T3, 96 h, 4 days, read-out: growth inhibition rate v4. Format: cell-based. An excerpt: Measurement for anchorage-independent cell growth (colony method, etc.) is known to be a system for investigating the anticancer action (pharmacological effect) of compounds (Clinical Oncology, second edition, Cancer and Chemotherapy Publishers Inc.). As a method for measuring the non-adhesive growth of cells, there is the following method using a spheroid plate as referred to above in place of the colony method.
In a 96-well spheroid plate (Sumilon Celltight Spheroid 96U; Sumitomo Bakelite), FGFR3-TACC3_v1-expressing NIH3T3 cells, FGFR3-TACC3_v2-expressing NIH3T3 cells, FGFR3-TACC3_v3-expressing NIH3T3 cells, and FGFR3-TACC3_v4-expressing NIH3T3 cells were each seeded at 1×10^3 cells per well in D-MEM media (Invitrogen) containing 10% fetal bovine serum. […] A well supplemented with only medium was also prepared for a positive control. Culturing was performed overnight in the presence of 5% CO2 at 37° C. followed by addition of test compounds (final concentrations: 100 nM, 10 nM, and 1 nM). As a negative control, DMSO used as a solvent for the compounds was added at the same concentration (0.1%) as in the case of addition of the compounds. Then, culturing was performed in the presence of 5% CO2 at 37° C. for 4 days, and a cell counting reagent (CellTiter-Glo™ Luminescent Cell Viability Assay; Promega) was added and the resulting mixture was stirred for 20 minutes followed by measurement with a luminometer.

Test [4] has as its system UM-UC-14 (FGFR3_S249C-positive cells, bladder cancer). Nature of the test: Antitumor test on UM-UC-14 subcutaneous xenograft. The class given is in vivo, nude mice. The conditions noted are these: oral, 1 mg/kg/day, once a day, tumor volume at Day 11 vs Day 1. The protocol:
3×10^6 UM-UC-14 cells per 0.1 mL (PBS+matrigel, 1:1) were inoculated subcutaneously into the right flank of nude mice (CAnN, Cg-Foxn1nu/CrlCrlj (nu/nu), male, 4- to 5-week-old), and when their tumor size reached about 250 mm^3, drug administration was started (Day 1). The drug was administered once a day and the tumor size was measured with a caliper and the body weight was also measured every two or three days. The antitumor effect was finally determined based on the tumor volume (mm^3; minor axis (mm)×minor axis (mm)×major axis (mm)/2) at Day 11 (n=3-5). To the control group, 0.5% MC (methyl cellulose) was administered. […] “% regression” indicates what percentage of regression could be achieved compared with the tumor volume at Day 1. Here, the tumor volume at Day 1 means tumor volume immediately before drug administration.

Test [5] deals with FGFR3-TACC3_v1 (N-FLAG) fusion polypeptide. Briefly: In vitro kinase activity inhibition (HTRF KinEASE-TK). The settings on record: 100 μM ATP. The class given is biochemical, human. (TR-FRET usually uses a lanthanide donor and a delayed reading to cut background.)
The test system of a further test is FGFR3_S249C/NIH3T3 cells. Briefly: Growth assay of cells with forced expression of mutant FGFR3. The class given is cell-based. The settings on record: Mus musculus, NIH3T3, 120 h; 5 days after addition, CellTiter-Glo; read-out: IC50 (growth inhibition). How it is done:
FGFR3_S249C/NIH3T3 cells were added to a 96-well spheroid plate (U bottom) at a concentration of 3000 cells/well/90 μL, and the compound solution (10 μL) was added thereto on the next day (final DMSO concentration: 0.1%). The compound solution was prepared by serially diluting the compound with DMSO at a 3-fold common ratio (9 portions and DMSO only) from the maximum concentration of 10 mM and then diluted 100-fold with a culture medium (D-MEM, 10% FBS). 5 days after the addition of the compound, the growth inhibition caused by the compound was evaluated by Promega (G7573) CellTiter-Glo™ Luminescent Cell Viability Assay.
(In general: ATP-based viability assays read luminescence as a measure of living cells.)

In test [6] the test system is FGFR3-BAIAP2L1-expressing NIH3T3 cells. Briefly: Anchorage-independent cell growth inhibition, spheroid plate. Format: cell-based. The conditions noted are these: Mus musculus, NIH3T3, 96 h, 4 days, read-out: growth inhibition rate FGFR3-BAIAP2L1-expressing NIH3T3 Cells. The protocol:
In a 96-well spheroid plate (Sumilon Celltight Spheroid 96U; Sumitomo Bakelite), FGFR3-BAIAP2L1-expressing NIH3T3 cells were seeded at 1×10^3 cells per well in D-MEM medium containing 10% fetal bovine serum. A well supplemented with only medium was also prepared for a positive control. Culturing was performed overnight in the presence of 5% CO2 at 37° C. followed by addition of test compounds (final concentrations: 100 nM, 10 nM, and 1 nM). As a negative control, DMSO used as a solvent for the compounds was added at the same concentration (0.1%) as in the case of addition of the compounds. Then, culturing was performed in the presence of 5% CO2 at 37° C. for 4 days, and a cell counting reagent (CellTiter-Glo™ Luminescent Cell Viability Assay; Promega) was added and the resulting mixture was stirred for 20 minutes followed by measurement with a luminometer.

In a further test the target is human recombinant FGFR3 (Homo sapiens, UniProt P22607). Nature of the test: FGFR3 enzyme assay (LabChip EZ Reader).
human recombinant FGFR3, sequence (P22607 23-806): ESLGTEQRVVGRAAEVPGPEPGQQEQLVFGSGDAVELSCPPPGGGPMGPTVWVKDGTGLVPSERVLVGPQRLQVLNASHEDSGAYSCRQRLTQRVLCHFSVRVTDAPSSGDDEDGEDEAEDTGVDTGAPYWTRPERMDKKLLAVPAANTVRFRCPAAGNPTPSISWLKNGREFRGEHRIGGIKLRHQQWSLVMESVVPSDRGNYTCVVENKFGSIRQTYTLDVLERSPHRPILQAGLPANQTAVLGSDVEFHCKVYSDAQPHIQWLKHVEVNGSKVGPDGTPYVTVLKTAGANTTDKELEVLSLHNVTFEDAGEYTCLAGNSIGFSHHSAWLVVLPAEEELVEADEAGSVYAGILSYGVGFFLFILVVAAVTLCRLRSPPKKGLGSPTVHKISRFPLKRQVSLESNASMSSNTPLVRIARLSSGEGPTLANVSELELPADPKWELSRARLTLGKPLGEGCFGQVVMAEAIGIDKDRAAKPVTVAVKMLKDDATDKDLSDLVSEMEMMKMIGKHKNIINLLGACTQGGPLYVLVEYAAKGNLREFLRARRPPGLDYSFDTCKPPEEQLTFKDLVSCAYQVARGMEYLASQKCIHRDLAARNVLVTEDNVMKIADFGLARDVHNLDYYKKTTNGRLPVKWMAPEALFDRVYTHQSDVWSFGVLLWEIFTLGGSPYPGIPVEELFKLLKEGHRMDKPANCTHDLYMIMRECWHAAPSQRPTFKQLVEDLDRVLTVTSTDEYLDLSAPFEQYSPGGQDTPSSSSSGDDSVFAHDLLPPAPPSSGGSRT
For test [7], the system named is FGFR3-TACC3_v2 (N-FLAG) fusion polypeptide. Nature of the test: In vitro kinase activity inhibition (HTRF KinEASE-TK). The class given is biochemical, human. The settings on record: 100 μM ATP.
The test system of test [8] is FGFR3-TACC3_v3 (N-FLAG) fusion polypeptide. Described as above. The class given is biochemical, human. The settings on record: 100 μM ATP.

Experimental for human recombinant FGFR1: (§1) The compound was diluted with a solution of dimethyl sulfoxide (DMSO) (10-fold common ratio, 4 portions) before dilution with a reaction buffer (100 mM HEPES (pH7.5), 0.003% Brij-35, 0.004% Tween 20, 0.5 mM DTT, and 10 mM MgCl2) so that the final DMSO concentration was 2%. To 4 μL of the compound solution in a 384-well plate, 2 μL each of FGFR1 enzyme (2 or 3 ng/μL), FGFR2 enzyme (2 ng/μL), or FGFR3 enzyme (6 ng/μL) which were diluted with the reaction buffer was added. […] After the reaction was stopped, the reaction mixture was measured with a LabChip EZ Reader. The IC50 values were calculated by non-linear regression based on the inhibition rates obtained.
Experimental for human recombinant FGFR2: as §1
Experimental for human recombinant FGFR3: as §1

With `COc1cc(Nc2ncc(OCc3c(F)c(OC)cc(OC)c3F)cn2)ccc1N1CCC(N2CCN(C)CC2)CC1` [Example 56], the inhibition at 0.001 µM in test [1] (1 nM) stood at 29%; in [2] it was 5%. The inhibition at 0.01 µM in [1] (10 nM) was 83%; in test [2] it was 42%. The inhibition at 0.1 µM in [1] (100 nM) worked out at 90%; in test [2], 64%. Moreover, the IC50 at human recombinant FGFR1 and on human recombinant FGFR2 was 2 nM in each case.

Regarding `COc1cc(OC)c(F)c(COc2cnc(Nc3ccc(N4CCN(C)CC4)cc3)nc2)c1F` [Example 122], the inhibition at 0.001 µM turned out to be 19% in test [3] (1 nM), 6% in test [2] and 17% in [6] (1 nM). In addition, the inhibition at 0.01 µM in test [3] (10 nM) was determined as 82%; in [2] it was 43%; in [6] (10 nM) it was 83%. In addition, the inhibition at 0.1 µM in [3] (100 nM) stood at 89%; in [2], 63%; in test [6] (100 nM), 90%. Further, in test [4], the “Antitumor Activity, % regression” value was 15%. Besides, the “rate of inhibiting kinase activity v1” value in test [5] (1 nM) came out at 34%; in test [5] (10 nM), 80%; in test [5] (100 nM) it was 94%. For the same molecule, the IC50 stood at 2 nM at human recombinant FGFR2, 7 nM in the test with FGFR3_S249C/NIH3T3 cells and 2 nM at human recombinant FGFR3. For the same molecule, the “rate of inhibiting kinase activity v2” value in test [7] (1 nM) is reported as 27%; in [7] (10 nM), 80%; in test [7] (100 nM), 95%. Also, the “rate of inhibiting kinase activity v3” value in [8] (1 nM) worked out at 45%; in [8] (10 nM), 85%; in test [8] (100 nM), 97%.

What is called inhibition is how much of the control response was suppressed. A word on the IC50: it is the concentration needed to halve the response being measured.
